Values of other authors as cited in patent publication US9987252B2, “Primary amines and derivitves thereof as modulators of the 5-HT2A serotonin receptor useful for the treatment of disorders related thereto” (Arena Pharmaceuticals, Inc., priority 2006, dated 2018).

Test system: diabetic rats
Settings: 19.8% sciatic motor conduction deficit in diabetic rats

SMILES	correction of sciatic motor conduction deficit
O=CN1CCC(C(=O)NCCN2CCC(=C3c4ccccc4C=Cc4ccccc43)CC2)CC1 [AT-1015]	82.6-99.7%
Cc1nc2sccn2c(=O)c1CCN1CCC(=C(c2ccc(F)cc2)c2ccc(F)cc2)CC1 [ritanserin]	82.6-99.7%
COc1cccc(CCc2ccccc2OCC(CN(C)C)OC(=O)CCC(=O)O)c1 (stereo not drawn) [sarpogrelate]	82.6-99.7%
